Measurements taken from patent US12157746B2, “Tetrahydro-1H-pyrazino[2,1-a]isoindolylquinoline compounds for the treatment of autoimmune disease” (F. HOFFMANN-LA ROCHE AG, priority 2018, dated 2024).

Molecular target: T1, human TLR8 (Homo sapiens, UniProt Q9NR97)
T1 sequence (Q9NR97 27-1041): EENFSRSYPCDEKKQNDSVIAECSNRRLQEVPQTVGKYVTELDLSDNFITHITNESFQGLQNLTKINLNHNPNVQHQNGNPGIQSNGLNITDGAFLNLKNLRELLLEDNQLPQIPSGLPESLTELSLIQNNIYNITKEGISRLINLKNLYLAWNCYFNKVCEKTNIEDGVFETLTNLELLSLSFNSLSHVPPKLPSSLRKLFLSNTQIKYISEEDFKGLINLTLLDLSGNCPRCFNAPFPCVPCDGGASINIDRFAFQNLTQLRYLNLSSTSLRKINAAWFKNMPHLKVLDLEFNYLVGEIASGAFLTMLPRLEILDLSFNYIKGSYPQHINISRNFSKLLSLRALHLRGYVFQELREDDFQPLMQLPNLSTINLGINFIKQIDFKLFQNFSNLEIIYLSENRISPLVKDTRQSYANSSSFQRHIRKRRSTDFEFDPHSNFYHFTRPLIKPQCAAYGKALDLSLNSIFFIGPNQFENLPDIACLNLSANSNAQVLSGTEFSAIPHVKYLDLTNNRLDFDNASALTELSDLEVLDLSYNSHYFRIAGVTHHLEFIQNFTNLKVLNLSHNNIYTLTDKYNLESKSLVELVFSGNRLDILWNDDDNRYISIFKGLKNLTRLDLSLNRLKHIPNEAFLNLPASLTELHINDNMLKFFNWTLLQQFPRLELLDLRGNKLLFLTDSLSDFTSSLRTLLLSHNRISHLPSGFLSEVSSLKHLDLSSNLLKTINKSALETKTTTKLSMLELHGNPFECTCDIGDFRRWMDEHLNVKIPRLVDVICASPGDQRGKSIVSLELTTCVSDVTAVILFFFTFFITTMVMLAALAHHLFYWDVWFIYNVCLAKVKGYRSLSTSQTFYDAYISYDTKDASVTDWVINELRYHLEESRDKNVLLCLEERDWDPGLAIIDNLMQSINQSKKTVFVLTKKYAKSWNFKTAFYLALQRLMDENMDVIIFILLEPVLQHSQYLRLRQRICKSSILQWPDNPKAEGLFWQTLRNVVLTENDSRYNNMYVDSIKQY
Assay: HEK293-Blue-hTLR-8 cells assay
Assay type: cell-based
Conditions: HEK293-Blue-hTLR8 cells, R848 stimulation, 20 hrs, SEAP reporter; read-out: HEK/hTLR8 IC50
Summary of the method: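 Antagonism read out in HEK293-Blue-hTLR8 cells carrying an NF-κB/AP-1-driven SEAP reporter, stimulated with R848 (10 μL of 60 uM stock added) alongside serially diluted compound (1% DMSO), 20 h at 37° C. Supernatant SEAP measured with QUANTI-Blue after 2 h at 37° C, absorbance at 620-655 nm.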

| Compound | IC50 [nM] |
| --- | --- |
| [2H]c1ccc2c(N3C[C@@H](C)N4Cc5cc(N6CC(C)(N)C6)ccc5[C@H]4C3)ccc(C#N)c2n1 [Example 92, 5-[(4R,10bS)-8-(3-amino-3-methyl-azetidin-1-yl)-4-methyl-3,4,6,10b-tetrahydro-1H-pyrazino[2,1-a]isoindol-2-yl]-2-deuterio-quinoline-8-carbonitrile] | < 0.3 |
| [2H]c1ccc2c(N3C[C@@H](C)N4Cc5cc(N6CC7CNCC(C6)O7)ccc5[C@H]4C3)ccc(C#N)c2n1 [Example 93, 5-[(4R,10bS)-4-methyl-8-(9-oxa-3,7-diazabicyclo[3.3.1]nonan-3-yl)-3,4,6,10b-tetrahydro-1H-pyrazino[2,1-a]isoindol-2-yl]-2-deuterio-quinoline-8-carbonitrile] | 2.1 |
| C[C@@H]1CN(c2ccc3c(c2)CN2[C@H](C)CN(c4ccc(C#N)n5nccc45)C[C@H]32)CCN1 [Example 97, 4-[(4R,10bS)-4-methyl-8-[(3R)-3-methylpiperazin-1-yl]-3,4,6,10b-tetrahydro-1H-pyrazino[2,1-a]isoindol-2-yl]pyrazolo[1,5-a]pyridine-7-carbonitrile] | 1 |
| C[C@@H]1CN(c2ccc(C#N)n3nccc23)C[C@@H]2c3ccc(N[C@H]4CNC[C@H]4F)cc3CN12 [Example 98, 4-[(4R,10bS)-8-[[(3S,4R)-4-fluoropyrrolidin-3-yl]amino]-4-methyl-3,4,6,10b-tetrahydro-1H-pyrazino[2,1-a]isoindol-2-yl]pyrazolo[1,5-a]pyridine-7-carbonitrile] | 8.8 |
| C[C@@H]1CN(c2ccc(C#N)n3nccc23)C[C@@H]2c3ccc(N4CCOC[C@H](N)C4)cc3CN12 [Example 101, 4-[(4R,10bS)-8-[(6R)-6-amino-1,4-oxazepan-4-yl]-4-methyl-3,4,6,10b-tetrahydro-1H-pyrazino[2,1-a]isoindol-2-yl]pyrazolo[1,5-a]pyridine-7-carbonitrile] | 5.2 |
| C[C@@H]1CN(c2ccc(C#N)n3nccc23)C[C@@H]2c3ccc(N4CC[C@@](C)(N)C4)cc3CN12 [Example 103, 4-[(4R,10bS)-8-[(3R)-3-amino-3-methyl-pyrrolidin-1-yl]-4-methyl-3,4,6,10b-tetrahydro-1H-pyrazino[2,1-a]isoindol-2-yl]pyrazolo[1,5-a]pyridine-7-carbonitrile] | 4.8 |
| CO[C@@H]1CN(c2ccc3c(c2)CN2[C@H](C)CN(c4ccc(C#N)n5nccc45)C[C@H]32)CC[C@H]1N [Example 104, 4-[(4R,10bS)-8-[(3R,4R)-4-amino-3-methoxy-1-piperidyl]-4-methyl-3,4,6,10b-tetrahydro-1H-pyrazino[2,1-a]isoindol-2-yl]pyrazolo[1,5-a]pyridine-7-carbonitrile] | 3.2 |
| CO[C@@H]1CN(c2ccc3c(c2)CN2[C@H](C)CN(c4ccc(C#N)n5nccc45)C[C@H]32)CC[C@@H]1N [Example 105, 4-[(4R,10bS)-8-[(3R,4S)-4-amino-3-methoxy-1-piperidyl]-4-methyl-3,4,6,10b-tetrahydro-1H-pyrazino[2,1-a]isoindol-2-yl]pyrazolo[1,5-a]pyridine-7-carbonitrile] | 4.1 |
| C[C@@H]1CN(c2ccc(C#N)n3nccc23)C[C@@H]2c3ccc(N4CC5CNCC(C4)O5)cc3CN12 [Example 107, 4-[(4R,10bS)-4-methyl-8-(9-oxa-3,7-diazabicyclo[3.3.1]nonan-3-yl)-3,4,6,10b-tetrahydro-1H-pyrazino[2,1-a]isoindol-2-yl]pyrazolo[1,5-a]pyridine-7-carbonitrile] | 16.5 |
| C[C@@H]1CN(c2ccc(C#N)n3nccc23)C[C@@H]2c3ccc(N4C[C@@H](N)[C@](C)(O)C4)cc3CN12 [Example 108, 4-[(4R,10bS)-8-[(3R,4R)-4-amino-3-hydroxy-3-methyl-pyrrolidin-1-yl]-4-methyl-3,4,6,10b-tetrahydro-1H-pyrazino[2,1-a]isoindol-2-yl]pyrazolo[1,5-a]pyridine-7-carbonitrile] | 8.9 |
| C[C@@H]1CN(c2ccc(C#N)n3ncc(F)c23)C[C@@H]2c3ccc(N4C[C@H](N)[C@@](C)(O)C4)cc3CN12 [Example 112, 4-[(4R,10bS)-8-[(3S,4S)-4-amino-3-hydroxy-3-methyl-pyrrolidin-1-yl]-4-methyl-3,4,6,10b-tetrahydro-1H-pyrazino[2,1-a]isoindol-2-yl]-3-fluoro-pyrazolo[1,5-a]pyridine-7-carbonitrile] | 3.6 |
| CO[C@@H]1CN(c2ccc3c(c2)CN2[C@H](C)CN(c4ccc(C#N)n5ncc(F)c45)C[C@H]32)C[C@H]1N [Example 113, 4-[(4R,10bS)-8-[(3R,4R)-3-amino-4-methoxy-pyrrolidin-1-yl]-4-methyl-3,4,6,10b-tetrahydro-1H-pyrazino[2,1-a]isoindol-2-yl]-3-fluoro-pyrazolo[1,5-a]pyridine-7-carbonitrile] | 2 |

Now from value to molecule:

| IC50 [nM] | Compound |
| --- | --- |
| 5.6 | CO[C@@H]1CN(c2ccc3c(c2)CN2[C@H](C)CN(c4ccc(C#N)n5nccc45)C[C@H]32)C[C@H]1N [Example 94, 4-[(4R,10bS)-8-[(3R,4R)-3-amino-4-methoxy-pyrrolidin-1-yl]-4-methyl-3,4,6,10b-tetrahydro-1H-pyrazino[2,1-a]isoindol-2-yl]pyrazolo[1,5-a]pyridine-7-carbonitrile] |
| 4.6 | CO[C@H]1CN(c2ccc3c(c2)CN2[C@H](C)CN(c4ccc(C#N)n5nccc45)C[C@H]32)C[C@@H]1N [Example 95, 4-[(4R,10bS)-8-[(3S,4S)-3-amino-4-methoxy-pyrrolidin-1-yl]-4-methyl-3,4,6,10b-tetrahydro-1H-pyrazino[2,1-a]isoindol-2-yl]pyrazolo[1,5-a]pyridine-7-carbonitrile] |
| 4 | C[C@@H]1CN(c2ccc(C#N)n3nccc23)C[C@@H]2c3ccc(N4CC[C@@H](N)C4)cc3CN12 [Example 96, 4-[(4R,10bS)-8-[(3R)-3-aminopyrrolidin-1-yl]-4-methyl-3,4,6,10b-tetrahydro-1H-pyrazino[2,1-a]isoindol-2-yl]pyrazolo[1,5-a]pyridine-7-carbonitrile] |
| 2.9 | CO[C@H]1CCN(c2ccc3c(c2)CN2[C@H](C)CN(c4ccc(C#N)n5nccc45)C[C@H]32)C[C@H]1N [Example 106, 4-[(4R,10bS)-8-[(3R,4S)-3-amino-4-methoxy-1-piperidyl]-4-methyl-3,4,6,10b-tetrahydro-1H-pyrazino[2,1-a]isoindol-2-yl]pyrazolo[1,5-a]pyridine-7-carbonitrile] |
| 6.7 | C[C@@H]1CN(c2ccc(C#N)n3nccc23)C[C@@H]2c3ccc(N4C[C@H](N)[C@@](C)(O)C4)cc3CN12 [Example 109, 4-[(4R,10bS)-8-[(3S,4S)-4-amino-3-hydroxy-3-methyl-pyrrolidin-1-yl]-4-methyl-3,4,6,10b-tetrahydro-1H-pyrazino[2,1-a]isoindol-2-yl]pyrazolo[1,5-a]pyridine-7-carbonitrile] |
| 5 | C[C@@H]1CN(c2ccc(C#N)n3nccc23)C[C@@H]2c3ccc(N4C[C@@H](N)[C@H](O)C4)cc3CN12 [Example 110, 4-[(4R,10bS)-8-[(3R,4R)-3-amino-4-hydroxy-pyrrolidin-1-yl]-4-methyl-3,4,6,10b-tetrahydro-1H-pyrazino[2,1-a]isoindol-2-yl]pyrazolo[1,5-a]pyridine-7-carbonitrile] |
| 2 | C[C@@H]1CN(c2ccc(C#N)n3nccc23)C[C@@H]2c3ccc(N4C[C@H](N)[C@@H](O)C4)cc3CN12 [Example 111, 4-[(4R,10bS)-8-[(3S,4S)-3-amino-4-hydroxy-pyrrolidin-1-yl]-4-methyl-3,4,6,10b-tetrahydro-1H-pyrazino[2,1-a]isoindol-2-yl]pyrazolo[1,5-a]pyridine-7-carbonitrile] |
